Several values for one entry are separate records, joined by “and”; a condition that tells them apart may be missing. Identical values can stand only once.
Assays:
[1] = 101.3 kPa, Liquid; for viscosity: Capillary tube (Ostwald / Ubbelohde) method; for speed of sound: Linear variable-path acoustic interferometer; for mass density: Pycnometric method
[2] = refractive index (Na D-line) (dimensionless); settings: 101.33 kPa, Liquid, Standard Abbe refractometry
[3] = xn = mol fraction of the nth substance listed; settings: 101.3 kPa, Liquid; for viscosity: Capillary tube (Ostwald / Ubbelohde) method; for speed of sound: Linear variable-path acoustic interferometer; for mass density: Pycnometric method
[4] = refractive index (Na D-line) (dimensionless); xn = mol fraction of the nth substance listed; settings: 101.3 kPa, Liquid, Standard Abbe refractometry

OCCO [1,2-ethanediol]
Settings | mass density, 298.15 K [kg/m3] | mass density, 303.15 K [kg/m3] | mass density, 308.15 K [kg/m3] | refractive index, 298.15 K | refractive index, 303.15 K | refractive index, 308.15 K | speed of sound, 298.15 K [m/s] | viscosity, 298.15 K [mPa·s] | viscosity, 303.15 K [mPa·s] | viscosity, 308.15 K [mPa·s]
[1] | 1111.3 | 1107.3 | 1103.5 | – | – | – | 1659 | 12.62 | 9.618 | 7.539
[2] | – | – | – | 1.4307 | 1.4269 | 1.4246 | – | – | – | –

OCCO [1,2-ethanediol] + C1COCCO1
x2 = 0
Settings | mass density, 298.15 K [kg/m3] | mass density, 303.15 K [kg/m3] | mass density, 308.15 K [kg/m3] | refractive index, 298.15 K | refractive index, 303.15 K | refractive index, 308.15 K | speed of sound, 298.15 K [m/s] | viscosity, 298.15 K [mPa·s] | viscosity, 303.15 K [mPa·s] | viscosity, 308.15 K [mPa·s]
[3] | 1111.3 | 1107.3 | 1103.5 | – | – | – | 1659 | 12.62 | 9.618 | 7.539
[4] | – | – | – | 1.4307 | 1.4269 | 1.4246 | – | – | – | –

C1COCCO1 [1,4-dioxane]
Settings | mass density, 298.15 K [kg/m3] | mass density, 303.15 K [kg/m3] | mass density, 308.15 K [kg/m3] | refractive index, 298.15 K | refractive index, 303.15 K | refractive index, 308.15 K | speed of sound, 298.15 K | viscosity, 298.15 K [mPa·s] | viscosity, 303.15 K [mPa·s] | viscosity, 308.15 K [mPa·s]
[1] | 1027.6 | 1021.9 | 1016.2 | – | – | – | 1347 m/s and 1343 m/s | 1.166 | 1.069 | 0.984
[2] | – | – | – | 1.4201 | 1.417 | 1.4143 | – | – | – | –

C1COCCO1 [1,4-dioxane] + CCCCN(CCCC)CCCC
x1 = 1
Settings | mass density, 298.15 K [kg/m3] | mass density, 303.15 K [kg/m3] | mass density, 308.15 K [kg/m3] | refractive index, 298.15 K | refractive index, 303.15 K | refractive index, 308.15 K | speed of sound, 298.15 K [m/s] | viscosity, 298.15 K [mPa·s] | viscosity, 303.15 K [mPa·s] | viscosity, 308.15 K [mPa·s]
[3] | 1027.6 | 1021.9 | 1016.2 | – | – | – | 1343 | 1.166 | 1.069 | 0.984
[4] | – | – | – | 1.4201 | 1.417 | 1.4143 | – | – | – | –

C1COCCO1 [1,4-dioxane] + CCN(CC)CC
x1 = 1
Settings | mass density, 298.15 K [kg/m3] | mass density, 303.15 K [kg/m3] | mass density, 308.15 K [kg/m3] | refractive index, 298.15 K | refractive index, 303.15 K | refractive index, 308.15 K | speed of sound, 298.15 K [m/s] | viscosity, 298.15 K [mPa·s] | viscosity, 303.15 K [mPa·s] | viscosity, 308.15 K [mPa·s]
[3] | 1027.6 | 1021.9 | 1016.2 | – | – | – | 1343 | 1.166 | 1.069 | 0.984
[4] | – | – | – | 1.4201 | 1.417 | 1.4143 | – | – | – | –

CCCCCC [hexane]
Settings | mass density, 298.15 K [kg/m3] | mass density, 303.15 K [kg/m3] | mass density, 308.15 K [kg/m3] | refractive index, 298.15 K | refractive index, 303.15 K | refractive index, 308.15 K | speed of sound, 298.15 K [m/s] | viscosity, 298.15 K [mPa·s] | viscosity, 303.15 K [mPa·s] | viscosity, 308.15 K [mPa·s]
[1] | 654.8 | 649.7 | 644.8 | – | – | – | 1083 | 0.315 | 0.299 | 0.286
[2] | – | – | – | 1.3728 | 1.3698 | 1.367 | – | – | – | –

CCCCCC [hexane] + C1COCCO1
x2 = 0
Settings | mass density, 298.15 K [kg/m3] | mass density, 303.15 K [kg/m3] | mass density, 308.15 K [kg/m3] | refractive index, 298.15 K | refractive index, 303.15 K | refractive index, 308.15 K | speed of sound, 298.15 K [m/s] | viscosity, 298.15 K [mPa·s] | viscosity, 303.15 K [mPa·s] | viscosity, 308.15 K [mPa·s]
[3] | 654.8 | 649.7 | 644.8 | – | – | – | 1083 | 0.315 | 0.299 | 0.286
[4] | – | – | – | 1.3728 | 1.3698 | 1.367 | – | – | – | –

CCCCN(CCCC)CCCC [tributylamine]
Settings | mass density, 298.15 K [kg/m3] | mass density, 303.15 K [kg/m3] | mass density, 308.15 K [kg/m3] | refractive index, 298.15 K | refractive index, 303.15 K | refractive index, 308.15 K | speed of sound, 298.15 K [m/s] | viscosity, 298.15 K [mPa·s] | viscosity, 303.15 K [mPa·s] | viscosity, 308.15 K [mPa·s]
[1] | 774.4 | 770.1 | 766.2 | – | – | – | 1261 | 1.36 | 1.221 | 1.125
[2] | – | – | – | 1.4274 | 1.4251 | 1.4226 | – | – | – | –

CCN(CC)CC [triethylamine]
Settings | mass density, 298.15 K [kg/m3] | mass density, 303.15 K [kg/m3] | mass density, 308.15 K [kg/m3] | refractive index, 298.15 K | refractive index, 303.15 K | refractive index, 308.15 K | speed of sound, 298.15 K [m/s] | viscosity, 298.15 K [mPa·s] | viscosity, 303.15 K [mPa·s] | viscosity, 308.15 K [mPa·s]
[1] | 723.1 | 718.5 | 713.6 | – | – | – | 1127 | 0.363 | 0.347 | 0.33
[2] | – | – | – | 1.3983 | 1.3955 | 1.3926 | – | – | – | –
